# Patent publication US12281304B2, “Compositions and methods for treating and preventing muscular disorders and dystrophies, steroid side effects, and inflammation” (Children's National Medical Center, priority 2018, dated 2025)
# System: miRNAs in diaphragm muscle of mdx mice
# Assay: TaqMan low-density array (TLDA) miRNA profiling of diaphragm, discovery set (prophylactic mdx trial)
# Type: in vivo, mouse
# Details: mdx diaphragm, vs untreated mdx; Pred 5 mg/kg, Vam 15 mg/kg
# Excerpt: Archival muscle samples (diaphragm) from two separate preclinical studies were obtained, with each trial showing a significant benefit from both prednisolone and vamorolone drug treatments (23). Prednisolone was used because it is the active form of prednisone, the current DMD standard of care. The first, “discovery set” of diaphragm muscles was from a prophylactic trial design where 2-week old (postnatal day 15) mdx or wild type control mice received oral dosing for 6 weeks with vehicle (cherry syrup), prednisolone (5 mg/kg), or vamorolone (15 mg/kg) as previously reported (23). The second, “validation set” of diaphragm muscles was from an extended trial in older mice where mdx or wild type mice were subjected to treadmill running to unmask mild phenotypes. Mice in this validation set were treated with either vehicle, prednisolone (5 mg/kg) or vamorolone (45 mg/kg) for four months beginning at two months of age (23). At the endpoint of each trial, diaphragm muscles were harvested and frozen in liquid nitrogen-cooled isopentane.
# We extracted total RNA from 5 diaphragm muscles per treatment group in the discovery set of samples from 8-week old mice. RNA was extracted using a modified TRIzol protocol with isopropanol precipitation at −20° C. overnight. This RNA was reverse transcribed to cDNA using a High Capacity cDNA Reverse Transcription Kit with RNase Inhibitor (ThermoFisher; Carlsbad, Calif.), with miRNA-specific Megaplex RT Primers, Rodent Pools Set version 3.0 (ThermoFisher; Carlsbad, Calif.). Levels of each of the miRNAs were profiled in the discovery set using TAQMAN Array Rodent MiRNA A+B Cards Set v3.0 (ThermoFisher; Carlsbad, Calif.).
# In the discovery set experiments, levels of each miRNA were quantified in TaqMan low-density arrays using ThermoFisher Cloud software with the Relative Quantification Application (ThermoFisher; Carlsbad, Calif.) tool. Data was analyzed by ANOVA with post-hoc comparison of each group to the mdx vehicle-treated group. […] A P-value of P≤0.05 was set as the significance threshold, without adjustment for multiple comparisons. To reduce false-positive discovery in this setting, an evidence-based approach was used to identify efficacy associated miRNAs where 1) results from the multiple groups were cross-referenced, and 2) all candidate miRNAs identified in this discovery set were then assayed in a separate validation set of mice. For the validation set experiments, levels of each individual miRNA were assayed in samples from a second, independent preclinical trial in adult mdx mice. Data from individual TaqMan Assays was quantified using QuantStudio Real-Time PCR version 1.3 software (Applied Biosystems; Foster City, Calif.). The levels of all miRNAs were normalized to the geometric mean of multiple control genes (60, 70). Comparison of groups was made by ANOVA with Holm-Sidak post-hoc test comparing each group to mdx vehicle.
# To visualize behavior of miRNAs within individual mice for each group, heat map images were generated. Heat maps were generated using Rq values of TLDA array data exported from the Relative Quantification Application of the ThermoFisher Cloud software (ThermoFisher; Carlsbad, Calif.) tool. Heat maps of miRNA expression were produced using Hierarchical Clustering Explorer Version 3.5 (at www.cs.umd.edu/hcil/multi-cluster/) produced by the Human Computer Interaction Laboratory (University of Maryland; College Park, Md.).
# To examine miRNA expression TaqMan low density qPCR array cards were used to profile approximately 750 miRNAs within diaphragm muscle from a discovery set of mice. Samples for this experiment came from a trial that utilized a prophylactic approach (23). Briefly, mdx mice undergo a stage of peak severity characterized by widespread inflammation and necrosis from approximately 3-8 weeks of age, followed by a recovery stage where mice show milder phenotypes (25). […]
smiles,measurement,value
C[C@@H]1C[C@H]2[C@@H]3CCC4=CC(=O)C=C[C@]4(C)C3=CC[C@]2(C)[C@@]1(O)C(=O)CO [vamorolone],Rq mmu-miR-215-001200,0.495
same,Rq mmu-miR-218-000521,0.759
same,Rq mmu-miR-221-000524,0.674
same,Rq mmu-miR-222-002276,0.733
same,Rq mmu-miR-223-002295,0.78
same,Rq mmu-miR-296-5p-000527,0.882
same,Rq mmu-miR-301a-000528,0.77
same,Rq mmu-miR-301b-002600,0.917
same,Rq mmu-miR-322-001076,0.785
same,Rq mmu-miR-324-3p-002509,0.748
same,Rq mmu-miR-324-5p-000539,0.946
same,Rq mmu-miR-328-000543,0.858
same,Rq mmu-miR-335-3p-002185,1.249
same,Rq mmu-miR-335-5p-000546,0.76
same,Rq mmu-miR-337-3p-002532,1.078
same,Rq mmu-miR-338-3p-002252,0.689
same,Rq mmu-miR-339-5p-002257,0.929
same,Rq mmu-miR-340-3p-002259,0.75
same,Rq mmu-miR-340-5p-002258,0.726
same,Rq mmu-miR-342-3p-002260,0.677
same,Rq mmu-miR-342-5p-002527,0.644
same,Rq mmu-miR-345-5p-002528,0.808
same,Rq mmu-miR-350-002530,0.797
same,Rq mmu-miR-362-3p-002616,0.902
same,Rq mmu-miR-362-5p-002614,1.469
same,Rq mmu-miR-369-3p-000557,0.963
same,Rq mmu-miR-369-5p-001021,1.023
same,Rq mmu-miR-370-002275,1.146
same,Rq mmu-miR-376a#-002482,0.985
same,Rq mmu-miR-376a-001069,0.991
same,Rq mmu-miR-376b#-002451,0.717
same,Rq mmu-miR-376b-002452,1.153
same,Rq mmu-miR-376c-002450,0.931
same,Rq mmu-miR-379-001138,0.987
same,Rq mmu-miR-380-5p-002601,1.243
same,Rq mmu-miR-381-000571,1.288
same,Rq mmu-miR-382-000572,1.081
same,Rq mmu-miR-383-001767,0.272
same,Rq mmu-miR-384-5p-002602,0.727
same,Rq mmu-miR-409-3p-002332,1.266
same,Rq mmu-miR-410-001274,1.158
same,Rq mmu-miR-411-001610,1.083
same,Rq mmu-miR-431-001979,1.358
same,Rq mmu-miR-433-001028,1.407
same,Rq mmu-miR-434-5p-002581,1.208
same,Rq mmu-miR-450a-5p-002303,0.862
same,Rq mmu-miR-455-002455,0.607
same,Rq mmu-miR-467F-002886,0.581
same,Rq mmu-miR-467a-002587,0.763
same,Rq mmu-miR-467c-002517,0.844
same,Rq mmu-miR-483#-002560,1.386
same,Rq mmu-miR-486-001278,0.988
same,Rq mmu-miR-487b-001285,1.133
same,Rq mmu-miR-489-001302,0.942
same,Rq mmu-miR-491-001630,0.842
same,Rq mmu-miR-493-002519,1.057
same,Rq mmu-miR-494-002365,0.988
same,Rq mmu-miR-495-001663,0.897
same,Rq mmu-miR-497-001346,0.652
same,Rq mmu-miR-500-002606,0.878
same,Rq mmu-miR-501-3p-001651,1.158
same,Rq mmu-miR-503-002456,1.115
same,Rq mmu-miR-511-002549,0.477
same,Rq mmu-miR-532-3p-002355,1.069
same,Rq mmu-miR-532-5p-001518,1.043
same,Rq mmu-miR-540-3p-001310,0.746
same,Rq mmu-miR-541-002562,1.043
same,Rq mmu-miR-542-3p-001284,0.82
same,Rq mmu-miR-542-5p-002563,1.044
same,Rq mmu-miR-543-001298,1.176
same,Rq mmu-miR-543-002376,0.918
same,Rq mmu-miR-544-002550,0.952
same,Rq mmu-miR-574-3p-002349,0.692
same,Rq mmu-miR-652-002352,0.636
same,Rq mmu-miR-665-002607,1.203
same,Rq mmu-miR-669a-001683,0.551
same,Rq mmu-miR-673-3p-002449,1.148
same,Rq mmu-miR-673-001954,1.475
same,Rq mmu-miR-674#-001956,0.765
same,Rq mmu-miR-674-002021,0.892
same,Rq mmu-miR-675-3p-001941,1.14
same,Rq mmu-miR-682-001666,0.675
same,Rq mmu-miR-690-001677,0.861
same,Rq mmu-miR-706-001641,0.664
same,Rq mmu-miR-708-002341,0.51
same,Rq mmu-miR-720-001629,0.957
same,Rq mmu-miR-802-002029,0.126
same,Rq mmu-miR-805-002045,1.128
same,Rq mmu-miR-1274a-121150_mat,1.244
same,Rq mmu-miR-1941-3p-121130_mat,1.459
same,Rq mmu-miR-1943-121174_mat,1.268
same,Rq mmu-miR-1944-121189_mat,1.023
same,Rq mmu-miR-2146-241082_mat,0.413
same,Rq mmu-miR-30d-000420,0.829
same,Rq rno-miR-1-002064,0.956
same,Rq rno-miR-7#-001338,0.799
same,Rq rno-miR-7a#-002062,0.887
same,Rq rno-miR-20b-001326,0.711
same,Rq rno-miR-29c#-001818,0.93
same,Rq rno-miR-204#-002076,0.813
same,Rq rno-miR-224-000599,0.837
same,Rq rno-miR-345-3p-002061,0.999
same,Rq rno-miR-351-002063,1.376
same,Rq rno-miR-379#-002081,1.014
same,Rq rno-miR-381-001322,1.013
same,Rq rno-miR-489-001353,0.844
same,Rq rno-miR-664-001323,0.771
